Entries after “also recorded” stand apart in the source; their conditions may differ.
Experiments:
[1] = system: GBM patients; details: human, in vivo; cited from earlier work
[2] = system: GBM patients; test: Patient overall survival, Kaplan-Meier (trial NCT00662506); assay type: in vivo, human; details: cediranib, patients not on ASIs; n=33
[3] = system: recurrent GBM patient; test: MR T2-FLAIR imaging of a recurrent GBM patient before and after anti-PD-L1; assay type: in vivo, human; details: after 4 months of anti-PD-L1 treatment; NCT02336165
[4] = system: GL261 tumors; test: Tumor edema by wet/dry weight (water content), GL261 model; assay type: in vivo; details: mice under anti-PD1 treatment
Method: (§1) Edema in the tumor was assessed immediately after animal sacrifice via wet/dry weight analysis to determine the water content as previously described (43).

[5] = system: 005 GSC; test: Tumor edema by wet/dry weight, 005 GSC model; assay type: in vivo, mice; details: after 2 weeks of treatment
Method: as §1

[6] = system: GL261; test: Survival study, GL261 model; assay type: in vivo, mice; details: losartan with anti-PD1, no detectable tumors over 100 days
Method: (§2) Brain tumor implantation in the forebrain (50,000-100,000 cells), cranial window surgery and tumor resection as part of the standard of care treatment regimen were conducted as previously described (16, 43, 45). Mice were allowed to recover for 10-14 days after cranial window surgery prior to tumor implantation, and for 2 days after resection surgery (as part of the standard of care or bihemispheric model) prior to treatment initiation.

[7] = system: 005 GSC; test: Survival study, 005 GSC model; assay type: in vivo, mice; details: losartan with anti-PD1, no detectable tumors over 100 days
Method: as §2

[8] = system: CT2A; test: Survival study, CT2A model; assay type: in vivo, mice
Method: as §2

[9] = system: GL261; test: Survival study, GL261 model with standard of care (resection, radiation, temozolomide); assay type: in vivo, mice
Method: as §2

[10] = system: glioblastoma; test: Survival of mice with glioblastoma under losartan and ICB (summary statement); assay type: in vivo; details: losartan with ICB, in lieu of corticosteroids
[11] = system: MT-MMP-1 and -2 (Mt1, Mt2); test: scRNASeq of tumor endothelial cells (TECs) from GL261 tumors; assay type: in vivo, mice
Method: Following the single-cell suspension techniques of flow cytometry, tumor cells were blocked in 1% bovine serum albumin in phosphate-buffered saline solution (1% BSA/PBS). Cell suspensions were subsequently stained for flow cytometry for 30 min at 4° C. using antibodies specific for CD45 [30F11]-VioBlue from Miltenyi, CD3 [145-2C11]-PE from Biolegends, and CD 31 [MEC 13.3]-PE from BD Biosciences. Cells were washed with cold PBS, and then incubated for 15 min in 1.5 mL of 1% BSA/PBS containing 1 uM calcein AM (Life Technologies) and 0.33 uM TO-PRO-3 iodide (Life Technologies). Sorting was performed with the FACS Aria Fusion Special Order System (Becton Dickinson) using 488 nm (calcein AM, 530/30 filter; CD3-PE, 585/42 filter), 640 nm (TO-PRO-3, 670/14 filter), and 405 nm (CD45-VioBlue, 450/50 filter) lasers. […]
Sequencing data was processed from raw reads to gene expression matrices, starting with fbcl2fastq (v2.20.0) to generate demultiplexed FASTQ files. Bowtie was used to align the resulting paired-end scRNA-seq reads to the mouse transcriptome (mm10). Gene expression levels were quantified as transcripts-per-million (TPM) by running RSEM (v1.2.19) in paired-end mode. […]

[12] = system: GL261 tumors; test: Bulk RNASeq of GL261 tumors; assay type: in vivo, mice
[13] = system: hyaluronic acid (HA); test: Hyaluronic acid immunofluorescent imaging, GL261; assay type: in vivo, mice; details: 2 weeks of losartan, n=5
Text: (§3) Brains with tumors were prepped and stained for histology as previously described (45) and imaged on a TissueFAXS (TissueGnostics) slide scanner at the Ragon Institute, Massachusetts Institute of Technology.

[14] = system: GL261; test: Solid stress by 3D micro-ultrasound tissue deformation, GL261; assay type: in vivo, mice; details: 2 weeks of losartan, n=4
Text: Tumor size was visualized by 3D micro-ultrasound in anesthetized mice through the transparent cranial windows (45). Ultrasound was also used to measure tumor deformation as a readout of solid stress, following previous methods (14).

[15] = system: PD-L1; test: PD-L1 immunohistochemistry, GL261; assay type: in vivo, mice; details: 2 weeks of losartan, n=11-13
Text: as §3

[16] = system: GL261 tumor blood vessels; test: OCT imaging of tumor perfusion; assay type: in vivo, mice; details: vs PBS-treated controls
Text: In vivo imaging of perfused vessels was achieved via a custom-built optical coherence tomography (OCT) system as previously described (15). […] A depth-resolved profile was generated each day, and the raw tomograms were processed as previously described. Images across multiple days were co-registered using the Scale-invariant feature transform (SIFT) algorithm in ImageJ and Python.

[17] = system: GL261 tumors; test: Flow cytometry of tumors and cervical draining lymph nodes, GL261; assay type: in vivo, mice
Method: Single-cell suspensions were prepared from tumors and cervical draining lymph nodes that were isolated and dissected under stereotactic microscope. Cells were stained and processed (on a BD LSRFortessa X-20 Cell analyzer) and analyzed (FlowJo, Tree Star) as previously described (16). The following antibodies from BD Biosciences, EBioscience, and BioLegend were used at 1:200 dilutions: CD45-BV605, CD3-BV785, CD4-BV640, CD8-BV711A, NK1.1-APC; FoxP3-BV421; PD1-PerCP710A; TIGIT-PE Cy7; TIM3-PE; CD19-BV510; K167-FITC; GranzymeB-PE Cy7; CD11 b-BV785; MHCII-BV605; F4/80-PerCP Cy5.5; CX3CR1-APC; CD206-PE CY7; CD86-BV650; CCR2-PE; GR1-AF700.

[18] = system: GBM; details: in combination with the standard of care; cited from earlier work
[19] = system: GBM cells; details: at physiological levels; cited from earlier work
[20] = GL261, standard of care + anti-PD1 + losartan

bevacizumab
OS in GBM patients under ICB therapy [1]: failed to improve OS

COc1cc2c(Oc3ccc4[nH]c(C)cc4c3F)ncnc2cc1OCCCN1CCCC1 [cediranib]
overall survival [2]: 527 days

MEDI4763: anti-PD-L1 (NCT02336165) given to a recurrent GBM patient
edema on MR T2-FLAIR images [3]: increased edema

CCCCc1nc(Cl)c(CO)n1Cc1ccc(-c2ccccc2-c2nn[nH]n2)cc1 [losartan]
anti-PD1-induced edema [4]: decreases anti-PD1-induced edema
anti-PD1-induced edema [5]: decreases anti-PD1-induced edema
long-term survivors (LTS) [6]: 15%
long-term survivors (LTS) [7]: 22%
effect of adding losartan to anti-PD1 on survival [8]: failed to further enhance ICB efficacy
OS under the standard of care without ICB ([9]; GBM mouse models, losartan not given in conjunction with ICB): does not improve OS
long-term survivors [9, 20]: 43%
tumor re-challenge of long-term survivors [9, 20]: rejected tumor re-challenge
mice cured ([9]; losartan with ICB in combination with standard of care treatment): 40%
mice cured [10]: 20%
TEC MT-MMP-1 and -2 (Mt1, Mt2) expression [11]: downregulating
global and pro-tumor (M2-like) TAM-associated genes ([12]; bulk RNASeq): reduced the expression
microglia-associated genes ([12]; bulk RNASeq): upregulated
gene expression related to ECM, angiogenesis, immunosuppression, and hypoxia ([12]; vs controls, n=3): significantly reduced
HA levels [13]: reduces
solid stress (tissue deformation) [14]: reduces
PD-L1 protein expression [15]: reduces
tumor vessel normalization and perfusion [16]: greater overall perfusion
myeloid cells in tumors [17]: fewer myeloid cells
median OS [18]: failed to improve median OS

CNC(=O)[C@H](Cc1c[nH]c2ccccc12)NC(=O)[C@@H](CC(=O)NO)CC(C)C [Ilomastat]
anti-PD1-induced edema [4]: controls anti-PD1-induced edema comparably to losartan; also recorded: phenocopied the ability of losartan to prevent anti-PD1-induced edema
toxicity to GBM cells [19]: non-toxic

Source: patent US20250360106A1, “PREVENTING IMMUNOTHERAPY-INDUCED EDEMA USING ANGIOTENSIN RECEPTOR BLOCKERS” (The General Hospital Corporation, priority 2022, published 2025)
